Tests used:
[1] = system: adult human keratinocytes; experiment: Scratch wound closure / post-injury migration of keratinocyte monolayer; assay type: cell-based; conditions: 10 nM peptide, monitored 0, 1, 3 and 5 hours post-injury (FIG. 5)
Description: Adult human keratinocytes were plated into glass-bottom well plates at high density. Scratch wounds were made in the cell monolayer 24 h post-plating. The peptides dissolved in keratinocyte growth media (10 nM) were applied immediately after wounding. Wound closure was monitored at 0, 1, 3 and 5 hours post-injury. Dashed line outlines the wounds. Representative images of wounds treated with TSN2 and TSN6 are shown.
Human epidermis-derived keratinocytes were plated at a post-confluent density prior to mechanical injury in the presence or absence of bioactive wound healing peptides or control entities.

cranial cutaneous wounds = experiment: Cranial cutaneous excisional wound healing in cyclophosphamide-treated mice (impaired healing model); assay type: in vivo, Balb/c mice; conditions: peptide in CMC applied daily days 1-5, day 6 post-injury; vs untreated control or collagenase (FIGS. 7-8)
Description: Balb/c mice were pre-treated with cyclophosphamide at 150 mg/kg 3 days prior to injury and with 100 mg/kg cyclophosphamide 1 day before injury. Cranial cutaneous wounds were created using 4 mm punch biopsy tool and immediately covered with adherent transparent dressing (TEGADERM™). The peptides were prepared fresh daily and injected under the dressing on days 1-5 post injury. On day 6 after wounding the animals were sacrificed according to Division of Laboratory Animal Medicine (DLAM) approved procedures. Wounds together with surrounding healthy tissues were excised, cut in half along the midline and either fixed in 4% phosphate buffered formaldehyde or frozen in OCT for further processing. […]
Wounds were created, treated as described in FIG. 6 and scored in a blind manner according to the grading described in Table 2. * indicates statistical significance of findings (p<0.05).
Wounds were created and treated as described in FIG. 1. Wound epithelialization was measured at day 6 post wounding. ** indicate statistical significance of findings (p<0.05). […]
Following cyclophosphamide treatment, animals were injured and then wounds treated/covered. Test entities were coded so that the nature of the experiment was blinded to the investigator; and, each specimen was evaluated and scored blindly according to the wound healing system shown in Table 2, prior to unmasking the experimental code. […]

[2] = system: human microvascular endothelial cells; experiment: Human microvascular endothelial cell proliferation (coulter counter cell count); assay type: cell-based; conditions: for endothelial cell proliferation relative to control: 100 nM peptides every other day, counted day 5 post-plating (FIG. 2); for endothelial growth-promoting activity compared with fibroblast growth factor 2 (FGF2): FIG. 2
Description: Human microvascular endothelial cells were plated at low density in multi-well plates and treated with 100 nM peptides every other day. At day 5 post-plating the cells were counted using a coulter counter. Cell proliferation relative to control is shown. *statistical significance (p<0.05).
(§1) In our efforts aimed at characterizing the growth-promoting, migration-enhancing and angiogenesis-inducing activities embodied in SANTYL® collagenase Ointment and in an effort focused on contrasting the efficacy of collagenase vs. the newly-discovered SANTYL® collagenase API-derived bioactive wound healing peptide(s), we continue to perform a battery of pre-clinical tests and trials using the well-established models of injury and repair developed, here, at Tufts University School of Medicine and the Center for Innovations in Wound Healing Research. To these ends, we took advantage of the 2D and 3D injury/repair models developed to quantify cellular responses to injury. […] This is especially noteworthy since these peptides not only promote vascular endothelial growth but, adult human keratinocyte growth.

[3] = system: human microvascular endothelial cells; experiment: In vitro angiogenesis / tube formation on growth factor-reduced Matrigel; assay type: cell-based; conditions: 100 nM peptide in Matrigel and media (FIG. 4)
Description: ECM-derived peptides were dissolved in growth factor-reduced Matrigel at 100 nM, the matrix was allowed to polymerize, human microvascular endothelial cells were plated either in control low serum containing media or media containing 100 nM peptides. Representative images of cells treated with endothelial ECM-derived peptides are shown.
Function-specific domains present within TSN1/2 and the newly-engineered “combinatorial” peptides present within TSN 10 are able to promote in vitro angiogenesis. TSN peptides promote morphogenesis and angiogenic activation by stimulating migration, proliferation and tube formation; peptide-stimulated endothelial tubes are more numerous, of greater length, having more branch points then control treated endothelial cell cultures.

[4] = system: adult human keratinocytes; experiment: Adult human keratinocyte proliferation (coulter counter cell count); assay type: cell-based; conditions: FIG. 3B, PK vs. peptides
Description: Adult human keratinocytes were plated at low density in multi-well plates and treated with 10 nM peptides (FIG. 3A) or 1-100 nM peptides (FIG. 3B) every other day. At day 7 post-plating the cells were counted using a coulter counter. Cell proliferation relative to control (FIG. 3A) or absolute cell number grown (FIG. 3B) are shown. *statistical significance (p<0.05).
as §1

| Sequence | keratinocyte migration in response to scratch injury (wound closure) [1] | wound healing in vivo (wound score, Table 2 grading; wound closure) (cranial cutaneous wounds) | endothelial cell proliferation relative to control [2] | endothelial growth-promoting activity compared with fibroblast growth factor 2 (FGF2) [2] | in vitro angiogenesis (tube formation) [3] | keratinocyte growth-promoting activity compared with PK SANTYL collagenase API [4] |
| --- | --- | --- | --- | --- | --- | --- |
| HSPDIQLQKGLTFEPIQIK (listed as Homo sapiens) [TSN6, 19 aa peptide; origin Multimerin-1 Coiled coil domain] | marked migration-enhancing activity | markedly stimulated to heal wounds |  |  |  |  |
| MENAELDVPIQSVFTR (listed as Homo sapiens) [TSN2, 16 aa peptide; origin Thrombospondin-1 N-terminal domain] | marked migration-enhancing activity |  | stimulate human dermally-derived microvascular endothelial cell growth in vitro | exceed the growth-promoting activity embodied in fibroblast growth factor 2 (FGF2) | angiogenesis-inducing activity | completely accounting for the keratinocyte growth-promoting activity present within PK SANTYL collagenase API |
| NFQGVQNRFVFGTP (listed as Homo sapiens) [TSN1, 14 aa peptide; origin Thrombospondin-1 Laminin G-like domain] |  |  | stimulate human dermally-derived microvascular endothelial cell growth in vitro | exceed the growth-promoting activity embodied in fibroblast growth factor 2 (FGF2) | markedly promoted in vitro angiogenesis | completely accounting for the keratinocyte growth-promoting activity present within PK SANTYL collagenase API |
| RPGPSPEGTGQSYNYR (listed as Homo sapiens) [TSN8, 16 aa peptide] |  |  |  |  | markedly promoted in vitro angiogenesis |  |
| TGQSYNQYSQRPYLGVYVFK (listed as Homo sapiens) [TSN10, 20 aa combinatorial peptide; Combination of Thrombospondin and multimerin peptides] |  |  |  |  | markedly promoted in vitro angiogenesis | completely accounting for the keratinocyte growth-promoting activity present within PK SANTYL collagenase API |

Source: patent US10485846B2, “Collagenase-derived peptides promote tissue regeneration and wound healing” (Tufts University, priority 2014, dated 2019)
